Results as given in the supplement of paper PMC10307832.

How the values were obtained:
Experiment in all cases: relative viability (nuclei count vs DMSO), 5 days (fraction); higher = more cells survive
NCI-H23 = system: NCI-H23
How it was run: (§1)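 Lung cancer cell lines, seeded in 1536-well plates, were treated the following day by pin tool with a single drug or with five library-drug doses (not always all listed) in √10 steps on top of a fixed anchor-drug dose. Cells were fixed and nuclei stained in one step after 5 days, and nuclei were counted. Relative viability is the nuclei count for treated wells divided by that for vehicle wells, reported as medians of duplicate plates.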

COR-L 105 = system: COR-L 105
How it was run: as §1

H3255 = system: H3255
How it was run: as §1

NCI-H520 = system: NCI-H520
How it was run: as §1

LK-2 = system: LK-2
How it was run: as §1

NCI-H596 = system: NCI-H596
How it was run: as §1

NCI-H441 = system: NCI-H441
How it was run: as §1

PC-3 [JPC-3] = system: PC-3 [JPC-3]
How it was run: as §1

ChaGo-K-1 = system: ChaGo-K-1
How it was run: as §1

SW 900 = system: SW 900
How it was run: as §1

NCI-H1975 = system: NCI-H1975
How it was run: as §1

NCI-H1734 = system: NCI-H1734
How it was run: as §1

HCC-366 = system: HCC-366
How it was run: as §1

LOU-NH91 = system: LOU-NH91
How it was run: as §1

A-427 = system: A-427
How it was run: as §1

SK-MES-1 = system: SK-MES-1
How it was run: as §1

EMC-BAC-2 = system: EMC-BAC-2
How it was run: as §1

EKVX = system: EKVX
How it was run: as §1

NCI-H1666 = system: NCI-H1666
How it was run: as §1

NCI-H1755 = system: NCI-H1755
How it was run: as §1

NCI-H2170 = system: NCI-H2170
How it was run: as §1

`CCN(CC)CCCCNc1ncc2cc(-c3cc(OC)cc(OC)c3)c(NC(=O)NC(C)(C)C)nc2n1` + O=C(CCCCCCC(=O)Nc1ccccc1)NO [Vorinostat] (partner 1 µM) showed a relative viability (NCI-H23; first compound 0.01 µM) of 0.615, a relative viability (NCI-H23; first compound 0.03162 µM) of 0.711 and a relative viability (NCI-H23; first compound 0.1 µM) of 0.715. For the same compound, the relative viability (NCI-H23; first compound 0.3162 µM) was 0.467, the relative viability (NCI-H23; first compound 1 µM) was 0.581 and the relative viability (COR-L 105; first compound 0.01 µM) was 0.771. For the same compound, the relative viability (COR-L 105; first compound 0.03162 µM) was 0.774, the relative viability (COR-L 105; first compound 0.1 µM) was 0.981 and the relative viability (COR-L 105; first compound 0.3162 µM) was 0.796. For the same compound, the relative viability (COR-L 105; first compound 1 µM) was 0.805, the relative viability (H3255; first compound 0.01 µM) was 0.702 and the relative viability (H3255; first compound 0.1 µM) was 0.946. For the same compound, the relative viability (H3255; first compound 0.3162 µM) was 1.02, the relative viability (H3255; first compound 1 µM) was 0.785 and the relative viability (NCI-H520; first compound 0.01 µM) was 0.783. The relative viability (NCI-H520; first compound 0.03162 µM) was 0.731, the relative viability (NCI-H520; first compound 0.1 µM) was 0.673 and the relative viability (NCI-H520; first compound 0.3162 µM) was 0.633. The relative viability (NCI-H520; first compound 1 µM) was 0.273, the relative viability (LK-2; first compound 0.01 µM) was 0.266 and the relative viability (LK-2; first compound 0.03162 µM) was 0.213. It also gave a relative viability (LK-2; first compound 0.1 µM) of 0.2, a relative viability (LK-2; first compound 0.3162 µM) of 0.235 and a relative viability (LK-2; first compound 1 µM) of 0.252. For the same compound, the relative viability (NCI-H596; first compound 0.01 µM) was 0.658, the relative viability (NCI-H596; first compound 0.03162 µM) was 0.699 and the relative viability (NCI-H596; first compound 0.1 µM) was 0.597. The relative viability (NCI-H596; first compound 0.3162 µM) was 0.625, the relative viability (NCI-H596; first compound 1 µM) was 0.579 and the relative viability (NCI-H441; first compound 0.01 µM) was 0.863. For the same compound, the relative viability (NCI-H441; first compound 0.03162 µM) was 0.829, the relative viability (NCI-H441; first compound 0.1 µM) was 0.811 and the relative viability (NCI-H441; first compound 0.3162 µM) was 0.776. For the same compound, the relative viability (NCI-H441; first compound 1 µM) was 0.826, the relative viability (PC-3 [JPC-3]; first compound 0.03162 µM) was 0.659 and the relative viability (PC-3 [JPC-3]; first compound 0.1 µM) was 0.937. The relative viability (PC-3 [JPC-3]; first compound 0.3162 µM) was 1.18, the relative viability (PC-3 [JPC-3]; first compound 1 µM) was 0.698 and the relative viability (ChaGo-K-1; first compound 0.01 µM) was 0.776. For the same compound, the relative viability (ChaGo-K-1; first compound 0.03162 µM) was 0.822, the relative viability (ChaGo-K-1; first compound 0.1 µM) was 0.824 and the relative viability (ChaGo-K-1; first compound 0.3162 µM) was 0.827. It also gave a relative viability (ChaGo-K-1; first compound 1 µM) of 0.693, a relative viability (SW 900; first compound 0.01 µM) of 0.551 and a relative viability (SW 900; first compound 0.03162 µM) of 0.626. For the same compound, the relative viability (SW 900; first compound 0.1 µM) was 0.44, the relative viability (SW 900; first compound 0.3162 µM) was 0.412 and the relative viability (SW 900; first compound 1 µM) was 0.254. It also gave a relative viability (NCI-H1975; first compound 0.01 µM) of 0.758, a relative viability (NCI-H1975; first compound 0.03162 µM) of 0.756 and a relative viability (NCI-H1975; first compound 0.1 µM) of 0.853. The relative viability (NCI-H1975; first compound 0.3162 µM) was 0.78, the relative viability (NCI-H1975; first compound 1 µM) was 0.548 and the relative viability (NCI-H1734; first compound 0.01 µM) was 0.849. It also gave a relative viability (NCI-H1734; first compound 0.03162 µM) of 0.874, a relative viability (NCI-H1734; first compound 0.1 µM) of 0.974 and a relative viability (NCI-H1734; first compound 0.3162 µM) of 0.864. The relative viability (NCI-H1734; first compound 1 µM) was 0.757, the relative viability (HCC-366; first compound 0.01 µM) was 0.414 and the relative viability (HCC-366; first compound 0.03162 µM) was 0.369. The relative viability (HCC-366; first compound 0.1 µM) was 0.423, the relative viability (HCC-366; first compound 0.3162 µM) was 0.383 and the relative viability (HCC-366; first compound 1 µM) was 0.288. The relative viability (LOU-NH91; first compound 0.01 µM) was 0.868, the relative viability (LOU-NH91; first compound 0.03162 µM) was 0.99 and the relative viability (LOU-NH91; first compound 0.1 µM) was 1.04. For the same compound, the relative viability (LOU-NH91; first compound 0.3162 µM) was 1.08, the relative viability (LOU-NH91; first compound 1 µM) was 0.901 and the relative viability (A-427; first compound 0.01 µM) was 0.806. It also gave a relative viability (A-427; first compound 0.03162 µM) of 0.919, a relative viability (A-427; first compound 0.1 µM) of 1.02 and a relative viability (A-427; first compound 0.3162 µM) of 0.926. The relative viability (A-427; first compound 1 µM) was 0.817, the relative viability (SK-MES-1; first compound 0.01 µM) was 1.15 and the relative viability (SK-MES-1; first compound 0.03162 µM) was 1.17. For the same compound, the relative viability (SK-MES-1; first compound 0.1 µM) was 1.22, the relative viability (SK-MES-1; first compound 0.3162 µM) was 1.52 and the relative viability (SK-MES-1; first compound 1 µM) was 1.19. For the same compound, the relative viability (EMC-BAC-2; first compound 0.03162 µM) was 0.403, the relative viability (EMC-BAC-2; first compound 0.1 µM) was 0.428 and the relative viability (EMC-BAC-2; first compound 0.3162 µM) was 0.758. For the same compound, the relative viability (EMC-BAC-2; first compound 1 µM) was 0.444, the relative viability (EKVX; first compound 0.01 µM) was 0.814 and the relative viability (EKVX; first compound 0.03162 µM) was 0.734. For the same compound, the relative viability (EKVX; first compound 0.1 µM) was 0.731, the relative viability (EKVX; first compound 0.3162 µM) was 0.704 and the relative viability (EKVX; first compound 1 µM) was 0.621. It also gave a relative viability (NCI-H1666; first compound 0.01 µM) of 1.13, a relative viability (NCI-H1666; first compound 0.03162 µM) of 1.01 and a relative viability (NCI-H1666; first compound 0.1 µM) of 1.04. It also gave a relative viability (NCI-H1666; first compound 0.3162 µM) of 1.1, a relative viability (NCI-H1666; first compound 1 µM) of 1.05 and a relative viability (NCI-H1755; first compound 0.01 µM) of 0.71. For the same compound, the relative viability (NCI-H1755; first compound 0.03162 µM) was 0.919, the relative viability (NCI-H1755; first compound 0.1 µM) was 0.848 and the relative viability (NCI-H1755; first compound 0.3162 µM) was 0.965. The relative viability (NCI-H1755; first compound 1 µM) was 0.746, the relative viability (NCI-H2170; first compound 0.01 µM) was 0.782 and the relative viability (NCI-H2170; first compound 0.03162 µM) was 0.92. The relative viability (NCI-H2170; first compound 0.1 µM) was 0.983, the relative viability (NCI-H2170; first compound 0.3162 µM) was 0.969 and the relative viability (NCI-H2170; first compound 1 µM) was 0.776.
